The data set is described as follows: gradient 5% acetonitrile 3 min, to 50% in 2 min, to 85% in 15 min, held 3 min, 100 µL/min. As to conditions: column: Zorbax Extend-C18 2.1 x 50 mm; eluents: water / acetonitrile, 0.1% formic acid. The procedure, abridged: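 Pure standards were run in mixtures of ~100 molecules by HPLC coupled to a quadrupole time-of-flight mass spectrometer. The column was a Zorbax Extend-C18 (2.1 × 50 mm, 1.8 μm) at 100 μL/min, with water and acetonitrile each containing 0.1% formic acid, in positive and negative ionization mode. Dead and dwell volumes were 40 μL and 900 μL. Retention time was taken from computationally picked adduct peaks, each manually inspected, with data collected over 3 months.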
`COc1ccc(NC(=O)N2CCN(c3cc(-c4ccc(OC)c(OC)c4)ncn3)CC2)cc1OC` registered an RP-LC retention time of 620 s.
In the case of `CCOC(=O)c1sc2nc(C)cc(C(F)(F)F)c2c1N`, the RP-LC retention time was 1130 s.
The molecule `CCOC(=O)CCC(=O)NCCN1CCN(c2ccccc2)CC1` had an RP-LC retention time of 564 s.
As for `COC(=O)c1cc(OCC(=O)Nc2ccccc2F)c2ccccc2n1`, the RP-LC retention time came out at 799 s.
For the molecule `COc1ccc(-c2noc(C3CC(=O)N(c4cc(C)cc(C)c4)C3)n2)cc1` (stereo not given), the RP-LC retention time is 1040 s.
`Cn1nc(C(=O)NC2CCN(c3cc(-c4ccccc4)[nH]n3)CC2)c2ccccc21` yielded an RP-LC retention time of 792 s.
`CCN(CC)CCCNC(=O)C1CCC(=O)N(c2ccc(OC)cc2)C1c1ccc(F)cc1` (stereo not given): the RP-LC retention time is 614 s.
`CC(NS(=O)(=O)CCCOc1ccc2c(c1)OCO2)c1ccccc1` (stereo not given) yielded an RP-LC retention time of 750 s.
For the molecule `CCn1c(C)c(CN2CCC(C(=O)NCc3ccccc3C)CC2)c2ccccc21`, the RP-LC retention time came to 742 s.
In the case of `CC1CCN(C(=O)C2CCCN(C(=O)c3nnc(C(=O)Nc4ccc(F)cc4)s3)C2)CC1` (stereo not given) it was 661 s; in that of `Cc1cc(OCC(=O)N2CCN(c3ccccn3)CC2)nc2c1c(C)nn2-c1ccccc1`, 693 s.
The molecule `COCCn1cc(CCNC(=O)c2cc(F)cc(F)c2)c2cccnc21` registered an RP-LC retention time of 737 s.
As for `COC(=O)C1=CN(c2cc(OC)cc(OC)c2)c2ccc(F)cc2S1(=O)=O`, the RP-LC retention time amounted to 908 s.
Under `CC(=O)N1CCC(C(=O)N2CCCCCCNC(=O)[C@@H]3CCCC[C@@H]32)CC1` stands 657 s; under `Cc1nc(-c2ccccn2)cc2nn(CC(=O)N3CCOCC3)c(=O)n12`, 754 s.
Under `O=C(c1nnc(-c2ccc(S(=O)(=O)N3CCCCC3)cc2)o1)N1CCN(C2CCCCC2)CC1` stands 700 s; under `CC(C)CCNC(=O)c1cc2c(s1)N(C)CCC2`, 928 s.
For `CC(C)C(=O)Nc1ccc(-n2cnc(C(=O)NC(C)c3ccc(F)cc3)c2)nc1` (stereo not given), the RP-LC retention time came out at 777 s.
In the case of `Cn1cc(CCN2CCC(C(=O)NCC3CCCO3)CC2)c2cccnc21` (stereo not given) it was 562 s; in that of `O=C(C1CCCCC1)N1CCN(c2cc(-c3ccc(Cl)cc3)[nH]n2)CC1`, 910 s; in that of `CC12CC(c3ccccc3O1)C(C(=O)N1CCN(C(=O)c3ccco3)CC1)C(=O)N2` (stereo not given), 624 s.
Under `COc1cc(-c2noc(CCn3nc(-c4ccccc4)ccc3=O)n2)cc(OC)c1OC` stands 955 s; under `CN(C)CCNC(=O)C1CCN(c2nc3ccc(-c4ccc(F)cc4)nc3s2)CC1`, 686 s; under `COc1ccc(C2(C(=O)N3CC(c4noc(COc5ccc(F)cc5)n4)C3)CC2)cc1`, 974 s.
Molecule `CCOC(=O)C1=C(O)C(=O)N(Cc2ccccc2)C1` displayed an RP-LC retention time of 834 s.
Consider `COc1ccccc1C(=O)Nc1ccc2nc(N3CCN(CC(=O)N(C)C)CC3)cc(C(=O)O)c2c1`, for which the RP-LC retention time was found to be 579 s.
The molecule `COc1ccccc1CNC(=O)CN1CCN(Cc2ccc(F)cc2Cl)C1=O` gave an RP-LC retention time of 858 s.
For `CCc1cccc(NC(=O)Cn2nc3cc(C)nc(N4CCCC4)n3c2=O)c1`, the RP-LC retention time is 798 s.
Consider `O=C(NCCc1ccncc1)C1CN(S(=O)(=O)c2ccccc2)CC12CCCCC2` (stereo not given), for which the RP-LC retention time came to 641 s.
`O=C(Nc1ccc(F)c(C(F)(F)F)c1)C1COCC(=O)N1Cc1ccccc1` (stereo not given) gave an RP-LC retention time of 824 s.
Molecule `CCNC(=O)C1CCN(C2=NS(=O)(=O)C(c3ccc(C(C)C)cc3)=C2C)CC1` registered an RP-LC retention time of 812 s.
Consider `CCC1Oc2ccc(S(=O)(=O)N3CCC(C(=O)Nc4cc(Cl)ccc4C)CC3)cc2NC1=O` (stereo not given), for which the RP-LC retention time is 948 s.
`Cc1ccc(CNC(=O)c2c(OCC(C)C)cc(=O)n3c2CCCCC3)o1` registered an RP-LC retention time of 786 s.
The molecule `CCn1c(=O)oc2cc(-c3noc(-c4cc(Cl)ccc4F)n3)ccc21` had an RP-LC retention time of 1180 s.
Molecule `COc1ccc(CCNC(=O)C2CCCN(S(=O)(=O)c3ccc4c(ccn4C)c3)C2)cc1OC` (stereo not given) returned an RP-LC retention time of 828 s.
Molecule `Cc1ccc(N2CCN(C(=O)c3cn(-c4cc(N5CCCCC5)ncn4)cn3)CC2)cc1` registered an RP-LC retention time of 994 s.
On to `O=C(NCCC1CCN(C(=O)Nc2cc(F)ccc2F)CC1)c1ccoc1`, for which the RP-LC retention time amounted to 758 s.
`CCCC(=O)Nc1nc(-c2ccc3c(c2)N(CC)C(=O)CO3)cs1` yielded an RP-LC retention time of 853 s.
In turn, `O=C(c1ccncc1)N1CCc2c([nH]c3ccccc23)C1c1ccccc1` (stereo not given) displayed an RP-LC retention time of 862 s.
As for `CC(=O)c1ccc(S(=O)(=O)N2CCCC(C)(C(=O)NCc3ccccc3C)C2)cc1` (stereo not given), the RP-LC retention time is 588 s.
Consider `COc1nn(C)cc1C(=O)NCC(=O)NC1CCSC1=O` (stereo not given), for which the RP-LC retention time was found to be 559 s.
In turn, `O=C(Cc1csc(NC(=O)c2ccccc2)n1)Nc1ccc(F)c(Cl)c1` gave an RP-LC retention time of 869 s.
Molecule `COC(=O)C1=CN(c2ccccc2)c2ccccc2S1(=O)=O` had an RP-LC retention time of 777 s.
Under `Cc1ccccc1NC(=O)N(C)CCc1noc(COc2ccccc2)n1` stands 869 s; under `COCCCNC(=O)C1CCN(S(C)(=O)=O)c2cc(Cl)ccc2O1` (stereo not given), 730 s.
In the case of `CCn1nccc1C(=O)Nc1cnc(N2CCCCCC2)nc1`, the RP-LC retention time turned out to be 834 s.
In the case of `Cc1cccc(-c2noc(-c3nn(CC(=O)NCc4cccs4)c4ccccc34)n2)c1` it was 1140 s; in that of `CCOc1ccc2nc(Nc3ncc4c(n3)CC(c3ccc(F)cc3)CC4=O)nc(C)c2c1` (stereo not given), 833 s; in that of `COc1ccc(C(=O)N2CCC(n3nc(-c4ccsc4)ccc3=O)CC2)cc1`, 797 s.
In the case of `Cc1sc(C)c(S(=O)(=O)N2CCc3ccccc3C2)c1-c1cc(C(F)(F)F)on1` it was 1280 s.
Consider `Cc1cccc(-c2nc(Cn3nnc(C(=O)NCc4cccc(Br)c4)c3C)c(C)o2)c1`, for which the RP-LC retention time was determined as 1210 s.
Consider `CC(C)Cn1c(=O)c(C(=O)NC2CCCCCC2)nc2cccnc21`, for which the RP-LC retention time was determined as 1090 s.
On to `CN(c1nc(-c2ccc(C(C)(C)C)cc2)nc2ccccc12)C1CCCCC1`, for which the RP-LC retention time was determined as 1130 s.
On to `CCc1nc2cc(-c3noc(Cc4ccccc4F)n3)ccc2o1`, for which the RP-LC retention time came to 1050 s.
The molecule `Cc1ccc(-c2nnc(-c3nc(NCCN4CCCC4)c4ccccc4n3)o2)cc1` gave an RP-LC retention time of 713 s.
For `CCCC(=O)N1CCc2c([nH]c3ccccc23)C12C(=O)Nc1ccccc12` (stereo not given), the RP-LC retention time was 830 s.
In turn, `O=C1CCCc2cc(S(=O)(=O)N3CCC(C(=O)NC4CCCC4)CC3)ccc2N1` had an RP-LC retention time of 761 s.
Regarding `CCN1CCn2cc(S(=O)(=O)Nc3ccc(Cl)cc3F)cc2C1=O`, the RP-LC retention time worked out at 752 s.
Consider `Cc1ccc(C2Cn3cnc(C(=O)N4CCC(C(=O)NC5CCCC5)CC4)c3CO2)cc1` (stereo not given), for which the RP-LC retention time stood at 749 s.
In turn, `O=C(c1cccs1)N1CC(C(=O)N2CCN(c3ncccn3)CC2)C1` displayed an RP-LC retention time of 604 s.
For `O=C(Cn1c(=O)c2cc(C3CC3)nn2c2ncccc21)Nc1cccc(F)c1`, the RP-LC retention time came to 778 s.
Molecule `O=C1CC(CNS(=O)(=O)c2cccc(C(F)(F)F)c2)CN1c1ccc(Cl)cc1` (stereo not given) showed an RP-LC retention time of 893 s.
`CCCCN(CCCNc1nc(C(=O)OCC)nc2ccccc12)c1ccccc1` registered an RP-LC retention time of 732 s.
In turn, `O=C(Cc1nc(-c2ccccc2)n[nH]1)Nc1ccc(Cl)cc1` yielded an RP-LC retention time of 789 s.
In turn, `CC(C)n1ccnc(N2CCOCC2)c1=O` gave an RP-LC retention time of 601 s.
With `Cc1cc(C(=O)N2CCOCC2)c2cccc(Cl)c2n1`, the RP-LC retention time is 682 s.
Molecule `Cc1c(C(=O)NCc2cccnc2)oc2c1C(=O)CC(C)(C)C2` came in with an RP-LC retention time of 560 s.
As to `CCOc1ccccc1-c1noc(Cn2ncn3nc(-c4ccc(F)cc4)cc3c2=O)n1`, the RP-LC retention time was determined as 1080 s.
In the case of `CCc1ccc(NS(=O)(=O)c2ccc(-c3c(C)noc3C)cc2)cc1` it was 996 s.
`Cc1noc(C)c1CCC(=O)N1CCC(c2nc(C3CC3)n[nH]2)CC1` yielded an RP-LC retention time of 564 s.
For `CN(C)CCN1CC(C(=O)N2CCC(c3c[nH]c4ccccc34)(c3c[nH]c4ccccc34)CC2)CC1=O` (stereo not given), the RP-LC retention time was determined as 657 s.
In turn, `COc1cccc(CNC(=O)C2(C)CCCN(C(=O)Nc3ccccc3C)C2)c1` (stereo not given) displayed an RP-LC retention time of 895 s.
Take `O=C(COc1ccc(F)cc1F)Nc1cccc(-c2ccc(N3CCOCC3)nn2)c1`: the RP-LC retention time turned out to be 660 s.
`O=C(NC1CC1)[C@@H]1C[C@H](Oc2ccccc2)CN1C(=O)c1n[nH]c2ccccc12` gave an RP-LC retention time of 739 s.
In turn, `COc1ccc(C(O)CN2CCN(c3ccccc3C)CC2)cc1` (stereo not given) returned an RP-LC retention time of 686 s.
For `COc1ccc(CNC(=O)CS(=O)(=O)c2cccs2)cc1`, the RP-LC retention time amounted to 676 s.
Under `Cc1cc(Cl)ccc1NC(=O)N1C[C@H](c2nc(-c3cccnc3)no2)[C@@H](C)C1` stands 827 s.
`O=C(NCc1ccco1)c1ccc(-c2noc(C3CC3)n2)cc1` gave an RP-LC retention time of 839 s.
The molecule `CCCn1cc(S(=O)(=O)NCc2cccc(C)c2)c2cccnc21` came in with an RP-LC retention time of 943 s.
Molecule `O=C(NCc1ccccc1)c1ccc(-c2cccs2)nc1` had an RP-LC retention time of 884 s.
